Data: patent US12466784B2, “Analogs of pterostilbene amino acid bearing carbonates for treating a non-alcoholic fatty liver disease and nonalcoholic steatohepatitis” (APICAL MOLECULAR BIOTECH CO., LTD., priority 2020, dated 2025)
Values joined by “and” are separate entries in the source; they are usually repeats but may differ in a detail not shown here. Equal entries are not always repeated.

Columns and labels:
[1] = tested on: hepatic steatosis induced by MCD diet; assay: Histological examination (H&E stain) of liver of MCD diet mice; assay type: in vivo, Male C57BL/6 mice; conditions: for Avg: average of Scores of the group; for Ballooning / Inflammation / Steastosis / Fibrosis: score per animal; for Sum: sum of Scores of the 5 animals; for Scores: total score per animal
Protocol: (§1) Animals and experimental protocol: Male C57BL/6 mice, 4 weeks of age, were purchased from Laboratory Animal Center (Taiwan, China) were maintained under the procedures and guidelines provided by the Institutional Animal Care and Use Committee of the Health Research Institutes (Taiwan, China). They were maintained with free access to pellet food and water in stainless-steel cages at a temperature of 21±2° C. with a 12 h light/dark cycle.
(§2) Mice were randomly divided into five groups and treated as follows: (1) MCD diet+PG/TPSG (2) MCD diet+100 mg/kg all compounds. After 28 days, animals were sacrificed for the collection of blood for determination of plasma ALT and AST concentrations, and liver samples for H&E stain.
(§3) After 28 days, animals were sacrificed for the collection of blood for determination of plasma ALT and AST concentrations, and liver samples for H&E stain.

MCD diet NASH mice = assay: Serum AST and ALT of compounds treated-NASH mice (MCD diet); assay type: in vivo, Male C57BL/6 mice
Protocol: as §1, §2, §3

[2] = In vitro stability in pH 1.2 solution (USP Gastric fluid without enzymes); conditions: 37° C.
Protocol: Sample collection: At 0, 0.17, 0.5, 1, 2, 4 and 6 h, 100 mL of aliquots were taken from the incubation mixture and placed into centrifuge tubes containing 100 μL of ice-cold acetonitrile and 1 μm internal standard where the reaction was terminated.

[3] = MCD diet mice, 75 mg/kg oral, hydrochloride, 75 mg/kg
[4] = MCD diet mice, 100 mg/kg oral (Table 3 study)
[5] = MCD diet mice, 100 mg/kg oral (Table 3 study), hydrochloride, 100 mg/kg
[6] = MCD diet mice, 150 mg/kg oral, hydrochloride, 150 mg/kg
[7] = MCD diet mice, 100 mg/kg oral (Table 4 study)
[8] = MCD diet mice, 100 mg/kg oral, PG/TPSG (1:1)

(E)-2-(2-amino-3-methylbutanamido)ethyl (4-(3,5-dimethoxystyryl)phenyl) carbonate hydrochloride [Compound 5c]
anti-NASH/NAFLD activities, in words ([1]; MCD diet mice): significant anti-NASH/NAFLD activities | effect on MCD diet-induced steatohepatitis (H&E staining), in words ([1]; MCD diet mice, 100 mg/kg oral): prevented MCD diet-induced steatohepatitis | effect on MCD diet-induced steatohepatitis (H-E staining), in words ([1]; MCD diet mice, 75, 100 and 150 mg/kg oral (FIG. 1, Table 3)): prevented MCD diet-induced steatohepatitis | Avg ([1]; 75 mg/kg oral): 6.2 | Avg ([1]; 100 mg/kg oral (Table 3 study)): 4.2 | Avg ([1]; 150 mg/kg oral): 3.2 | Ballooning ([1]; MCD diet mice, 75 mg/kg oral): 2 | Inflammation ([1]; MCD diet mice, 75 mg/kg oral): 1 | Steastosis ([1]; MCD diet mice, 75 mg/kg oral once daily, 5 times a week): 3 | Fibrosis [1, 3]: 1 and 0 (4×) | Fibrosis [1, 4]: 0 | Inflammation [1, 4]: 0 | Ballooning [1, 5]: 2 (3×) and 1 (2×) | Steastosis ([1]; MCD diet mice, 100 mg/kg oral once daily, 5 times a week (Table 3 study), hydrochloride, 100 mg/kg): 3 (3×) and 2 (2×) | Fibrosis ([1]; MCD diet mice, 150 mg/kg oral): 0 | Inflammation ([1]; MCD diet mice, 150 mg/kg oral): 0 | Steastosis ([1]; MCD diet mice, 150 mg/kg oral once daily, 5 times a week, hydrochloride, 150 mg/kg): 2 (3×) and 1 and 3 | Ballooning [1, 6]: 1 (4×) and 2 | Sum ([1]; 75 mg/kg oral): 31 | Sum ([1]; 100 mg/kg oral (Table 3 study)): 21 | Sum ([1]; 150 mg/kg oral): 16 | Scores [1, 3]: 7 and 6 (4×) | Scores [1, 5]: 5 (3×) and 3 (2×) | Scores [1, 6]: 3 (3×) and 2 and 5 | Serum ALT (U/L) (MCD diet NASH mice; MCD diet mice, 75 mg/kg oral): 164.40 U/L | Serum AST (U/L) (MCD diet NASH mice; MCD diet mice, 75 mg/kg oral): 275.00 U/L | effect on serum concentrations of AST and ALT, in words (MCD diet NASH mice; MCD diet mice, 100 mg/kg oral (Table 2)): significantly inhibited the serum concentrations of AST and ALT | Serum ALT (U/L) (MCD diet NASH mice; [7]): 92.60 U/L | Serum AST (U/L) (MCD diet NASH mice; [7]): 245.80 U/L | Serum ALT (U/L) (MCD diet NASH mice; [8]): 205.13 U/L | Serum AST (U/L) (MCD diet NASH mice; [8]): 274.00 U/L | Serum ALT (U/L) (MCD diet NASH mice; MCD diet mice, 150 mg/kg oral): 82.80 U/L | Serum AST (U/L) (MCD diet NASH mice; MCD diet mice, 150 mg/kg oral): 192.00 U/L | effect on serum concentrations of AST and ALT, in words (MCD diet NASH mice; MCD diet mice, 75, 100 and 150 mg/kg oral (Table 4)): significantly inhibited the serum concentrations of AST and ALT with dose-dependent manners | compound remaining in pH = 1.2 solution (%) ([2]; Time 0 h): 100.0% | compound remaining in pH = 1.2 solution (%) ([2]; Time 0.167 h): 88.5% | compound remaining in pH = 1.2 solution (%) ([2]; Time 0.5 h): 93.2% | compound remaining in pH = 1.2 solution (%) ([2]; Time 1 h): 96.0% | compound remaining in pH = 1.2 solution (%) ([2]; Time 2 h): 91.7% | compound remaining in pH = 1.2 solution (%) ([2]; Time 4 h): 97.4%
